This is an account of results in US20260085081A1, “PHOSPHATIDYLAMINE COMPOUNDS INCLUDING A PLURALITY OF TERTIARY AMINO GROUP STRUCTURES AND COMPOSITIONS THEREOF” (PEKING UNIVERSITY, priority 2022, published 2026).

Test [1] has as its system Fluc-mRNA (luciferase expression). Nature of the test: In vivo transfection efficiency of Fluc-mRNA lipid nanoparticles after intramuscular injection. Also noted: species or system mice. As to conditions: for Intramuscular injection (PL/MC3) expression strength level: ratio of expression PL/MC3; for in vivo transfection (expression, FIG. 5): weight ratio lipid nanoparticle/RNA 10:1, DOPE or DSPC group; for in vivo transfection (expression, FIG. 5) / expression in vivo compared with control MC3: 3 μg Fluc-mRNA/mouse; for expression in vivo compared with control MC3 / enhancement of in vivo expression with respect to control MC3: DOPE group, weight ratio 10:1; for enhancement of in vivo expression with respect to control MC3: 3 g Fluc-mRNA/mouse. The method, then:
6 h after intramuscular injection of mRNA LNPs, mice were injected intraperitoneally with 0.2 mL […] (20 mg/mL PBS solution). After 10 min, mice were anesthetized with isoflurane in oxygen in a ventilated anesthesia room and imaged with an imaging system (IVIS, PerkinElmer), and luminescence was quantified using Living Image software (PerkinElmer).

A short description of test [2]: Summary of the strongest expressions over the administration routes. As to conditions: strongest level of the three administrations. The text has this: (§1) Finally, the expression levels of lipid nanoparticles with a plurality of tertiary amine groups from the embodiments of the present disclosure after intramuscular injection, white adipocyte administration, and intraperitoneal injection are summarized, and compared with lipid nanoparticles prepared from commercially available cationic lipids MC3 and SM102. […] However, the expression rates of the phosphatidylamine lipids with a plurality of tertiary amine groups from embodiments of the present disclosure are higher than that of SM102.

A further test has as its system white adipocyte. In words: White adipocyte administration, expression relative to SM102. Format: cell-based. As to conditions: for White adipocyte administration (PL/SM102) expression strength level: ratio of expression PL/SM102; for expression compared with control SM102: white adipocyte administration.
Text: as §1

The test system of another test is NIH-3T3 cells. In words: Transfection efficiency of lipid nanoparticles in NIH-3T3 cells. In kind it is cell-based, murine. The method, then:
The prepared cationic compounds (PL1, PL4, PL8, PL10, PL11, PL12, PL13, PL14, PL17, PL18, PL23, PL24, PL26, PL27, PL28, PL29, PL30, PL31, PL32, PL33, PL36, PL38, PL41, PL44, PL45, PL53, PL54, PL55, PL56, PL57, PL58, PL59, PL60, PL61, PL78, PL79, PL93, PL94, PL95, PL96, PL97, PL103), DOPE/DSPC, cholesterol, and DMG-PEG2000 are prepared with ethanol in a molar ratio of 35:16:46.5:2.5 to form the ethanol phase, and RNA is formulated into the aqueous phase with 50 mM citrate buffer solution at pH=4. Lipid nanoparticles are obtained by microfluidic mixing at aqueous phase:ethanol phase=3:1 (v/v), followed by dialysis purification in PBS at pH 7.4 overnight to remove ethanol.
Determination process included: preparing a 96-well plate, inoculating cells (4000 cells/well), adding 100 μL of medium, incubating at 37° C. overnight; after 24 h, adding lipid nanoparticles diluted with medium (achieving the final concentration of RNA of 10 µg/mL), incubating at 37° C. for 24 h, and then adding 50 μL of specialized luciferase substrate to each well, followed by detection using by a microplate reader (chemiluminescence).
FIG. 1A and FIG. 1B illustrate transfection of lipid nanoparticles of a DOPE group and a DSPC group in NIH3T3 cells according to some embodiments of the present disclosure. Specifically, for compounds PL1, PL4, PL6, PL8, PL10, PL11, PL12, lipid nanoparticles are prepared by DOPE and DSPC, respectively, according to an […] (Example 44). The transfection efficiency of these two groups of lipid nanoparticles in cells is first evaluated, and murine fibroblasts NIH-3T3 are selected for incubation (Example 47), and the results are shown in FIG. 1A and FIG. 1B. […] PL10, PL11, and PL12 all include two tertiary amino groups.

A further test relates to adipose tissue. In words: Intraperitoneal injection of Fluc-mRNA LNPs, expression and distribution. Format: in vivo, mice. As to conditions: for expression compared with control SM102: intraperitoneal injection; for Intraperitoneal injection (PL/SM102) expression strength level: ratio of expression PL/SM102. The method, then:
FIG. 10 illustrates the effect of Fluc-mRNA LNPs composed of different structural cationic lipids on the mRNA delivery efficiency after intraperitoneal administration according to some embodiments of the present disclosure. Targeting and expression of PL lipids on adipose tissue after intraperitoneal administration is also evaluated. […] That is to say, the PL lipid structure with the plurality of tertiary amino group structures may enhance the selective targeting of visceral adipocytes. […]
as §1

Take `CCCCC/C=C\C/C=C\CCCCCCCCOP(=O)(NCCN(CCCCCCCCCC(=O)OC(CC)CCCCC)CCCN(C)C)OCCCC(=O)OCCCCCCCCCCC` (centres unmarked) [PL12]: in test [1], the “Intramuscular injection (PL/MC3) expression strength level” value (“Intramuscular injection” below) is reported as “A (A: ≥2)” and the “in vivo transfection (expression, FIG. 5)” value (“in vivo transfection” for short) is listed as “expressed”. Further, the “Summary of the strongest expressions” value in test [2] is “A (A: ≥2)”. Further, in the test with white adipocyte, the “White adipocyte administration (PL/SM102) expression strength level” value (shortened to “White adipocyte administration”) was “D (D: <0.1)”. The “transfection efficiency relative to MC3 LNP” value in the test on NIH-3T3 cells (DOPE group LNP) was 7 fold. In the test with NIH-3T3 cells (DSPC group LNP), the “transfection efficiency relative to MC3 LNP” value was 1.5 fold.
Take `CCCCC/C=C\C/C=C\CCCCCCCCOP(=O)(NCCN(CCCCCCCCCCCC)CCCN(C)C)OCCCC(=O)OCCCCCCCCCCC` (centres unmarked) [PL11]: in test [1], the “expression in vivo compared with control MC3” value was “close to that of MC3”; the “Intramuscular injection” value is “C (C: ≥0.1 and <1)”; the “in vivo transfection” value was “expressed”. Besides, in test [2], the “Summary of the strongest expressions” value was “C (C: ≥0.1 and <1)”. Further, in the test with white adipocyte, the “White adipocyte administration” value is “C (C: ≥0.1 and <1)”. For the same molecule, the “transfection efficiency relative to MC3 LNP” value in the test with NIH-3T3 cells (DSPC group LNP) came out at 3 fold.
As to `CCCCCCCCCCCCN(CCCCCCCCCCCC)CCCN1CCN(CCCNP(=O)(OCCCCCCOC(=O)C(CCCCCC)CCCCCCCC)OCCCCCCOC(=O)C(CCCCCC)CCCCCCCC)CC1` (centres unmarked) [PL55], in test [1], the “expression in vivo compared with control MC3” value is reported as “better than that of control MC3”; the “enhancement of in vivo expression with respect to control MC3” value (“enhancement of in vivo expression” below) is reported as “an order of magnitude enhancement”; the “Intramuscular injection” value is recorded as “A (A: ≥2)”; the “in vivo transfection” value is recorded as “expressed”. Also, the “Summary of the strongest expressions” value in test [2] is given as “A (A: ≥2)”. For the same molecule, in the test with white adipocyte, the “White adipocyte administration” value was “B (B: ≥1 and <2)”; the “expression compared with control SM102” value is listed as “superior to that of the control SM102”. In the test on adipose tissue, the “expression compared with control SM102” value is recorded as “superior to that of the control SM102”; the “Intraperitoneal injection (PL/SM102) expression strength level” value (“Intraperitoneal injection” below) is “B (B: ≥1 and <2)”.
Take `CCCCCCCCCCCCN(CCCCCCCCCCCC)CCCN1CCN(CCCNP(=O)(OCCCCCCCCOC(=O)C(CCCCCC)CCCCCCCC)OCCCCCCCCOC(=O)C(CCCCCC)CCCCCCCC)CC1` (centres unmarked) [PL58]: in test [1], the “Intramuscular injection” value is reported as “A (A: ≥2)” and the “in vivo transfection” value is given as “expressed”. The “Summary of the strongest expressions” value in test [2] is listed as “A (A: ≥2)”. The “White adipocyte administration” value with white adipocyte is “C (C: ≥0.1 and <1)”. In the test with adipose tissue, the “Intraperitoneal injection” value was “C (C: ≥0.1 and <1)”.
For `CCCCC/C=C\C/C=C\CCCCCCCCOP(=O)(NCCCN(CCCN(CC(O)CCCCCCCCCC)CC(O)CCCCCCCCCC)CC(O)CCCCCCCCCC)OCCCCCCCC/C=C\C/C=C\CCCCC` (centres unmarked) [PL18], in test [1], the “Intramuscular injection” value is “A (A: ≥2)” and the “in vivo transfection” value is recorded as “expressed”. Further, the “Summary of the strongest expressions” value in test [2] is reported as “A (A: ≥2)”. The “White adipocyte administration” value with white adipocyte is “C (C: ≥0.1 and <1)”. In addition, in the test with adipose tissue, the “Intraperitoneal injection” value is recorded as “D (D: <0.1)”.
Take `CCCCC/C=C\C/C=C\CCCCCCCCOP(=O)(NCCCN1CCN(CCCN(CC(O)CCCCCCCCCC)CC(O)CCCCCCCCCC)CC1)OCCCCCCCC/C=C\C/C=C\CCCCC` (centres unmarked) [PL23]: in test [1], the “Intramuscular injection” value is “A (A: ≥2)” and the “in vivo transfection” value is given as “expressed”. For the same molecule, in test [2], the “Summary of the strongest expressions” value is reported as “A (A: ≥2)”. Further, in the test on white adipocyte, the “White adipocyte administration” value is “C (C: ≥0.1 and <1)”. The “Intraperitoneal injection” value in the test with adipose tissue is “C (C: ≥0.1 and <1)”.
For the molecule `CCCCCCCCCCCCN(CCCCCCCCCCCC)CCCN1CCN(CCCNP(=O)(OCCCCCCOC(=O)C(CC)CCCCCC)OCCCCCCOC(=O)C(CC)CCCCCC)CC1` (centres unmarked) [PL54], in test [1], the “Intramuscular injection” value was “A (A: ≥2)” and the “in vivo transfection” value is “expressed”. For the same molecule, the “Summary of the strongest expressions” value in test [2] was “A (A: ≥2)”. Besides, in the test on white adipocyte, the “White adipocyte administration” value is “B (B: ≥1 and <2)”; the “expression compared with control SM102” value was “superior to that of the control SM102”. Moreover, in the test on adipose tissue, the “expression compared with control SM102” value was “superior to that of the control SM102”; the “Intraperitoneal injection” value was “B (B: ≥1 and <2)”.
As for `CCCCCCCCCCCCN(CCCCCCCCCCCC)CCCN1CCN(CCCNP(=O)(OCCCCCCCCOC(=O)C(CC)CCCCCC)OCCCCCCCCOC(=O)C(CC)CCCCCC)CC1` (centres unmarked) [PL57], in test [1], the “expression in vivo compared with control MC3” value is recorded as “better than that of control MC3”; the “enhancement of in vivo expression” value is listed as “an order of magnitude enhancement”; the “Intramuscular injection” value is “A (A: ≥2)”; the “in vivo transfection” value is “expressed”. For the same molecule, the “Summary of the strongest expressions” value in test [2] is “A (A: ≥2)”. In the test on white adipocyte, the “White adipocyte administration” value is “B (B: ≥1 and <2)”; the “expression compared with control SM102” value is listed as “superior to that of the control SM102”. Also, in the test with adipose tissue, the “expression compared with control SM102” value is on record as “superior to that of the control SM102” and the “Intraperitoneal injection” value was “A (A: ≥2)”.
For `CCCCCCCCCCCCN(CCCCCCCCCCCC)CCCN1CCN(CCCNP(=O)(OCCCCCCCCOC(=O)C(CC)CCCC)OCCCCCCCCOC(=O)C(CC)CCCC)CC1` (centres unmarked) [PL56], in test [1], the “expression in vivo compared with control MC3” value is listed as “better than that of control MC3”; the “enhancement of in vivo expression” value is “an order of magnitude enhancement”; the “Intramuscular injection” value is “A (A: ≥2)”; the “in vivo transfection” value is listed as “expressed”. The “Summary of the strongest expressions” value in test [2] was “A (A: ≥2)”. Further, in the test with white adipocyte, the “White adipocyte administration” value is “B (B: ≥1 and <2)”; the “expression compared with control SM102” value was “superior to that of the control SM102”. In addition, in the test with adipose tissue, the “expression compared with control SM102” value was “superior to that of the control SM102” and the “Intraperitoneal injection” value is “A (A: ≥2)”.
As to `CCCCCCCCCCCCN(CCCCCCCCCCCC)CCCN1CCN(CCCNP(=O)(OCCCCCCOC(=O)C(CC)CCCC)OCCCCCCOC(=O)C(CC)CCCC)CC1` (centres unmarked) [PL53], in test [1], the “expression in vivo compared with control MC3” value was “better than that of control MC3”; the “enhancement of in vivo expression” value was “an order of magnitude enhancement”; the “Intramuscular injection” value is reported as “A (A: ≥2)”; the “in vivo transfection” value is recorded as “expressed”. The “Summary of the strongest expressions” value in test [2] is listed as “A (A: ≥2)”. Further, in the test with white adipocyte, the “White adipocyte administration” value is “B (B: ≥1 and <2)”; the “expression compared with control SM102” value was “superior to that of the control SM102”. Further, the “Intraperitoneal injection” value with adipose tissue was “C (C: ≥0.1 and <1)”.
`CCCCC/C=C\C/C=C\CCCCCCCCOP(=O)(NCCCN(C)C)OCCCCCCCC/C=C\C/C=C\CCCCC` [PL1]: the “in vivo transfection” value in test [1] is “expressed”. In addition, the “transfection efficiency relative to MC3 LNP” value in the test with NIH-3T3 cells (DOPE group LNP) is 16 fold.
